Results: patent publication US9969742B2, “Imidazotriazinone compounds” (Ironwood Pharmaceuticals, Inc., priority 2012, dated 2018)
Read-outs that look alike come from different tables or passages of the source.

Experiments:
Type in all cases: biochemical
[1] = target: T1, PDE1B (Homo sapiens, UniProt Q01064); experiment: Phosphodiesterase enzyme screening assay, PDE1B; conditions: ratio of IC50 values
T1 construct: purchased Reaction Biology Corporation, Malvern, Pa
Method in brief: (§1)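 Enzyme activity is measured as conversion of fluorescent cGMP (4.0 μM) to 5′-GMP after 1 h at R.T. in pH 7.5 HEPES/MgCl2/DTT buffer. Product is separated from substrate by microfluidic mobility shift, and inhibition is derived by comparison with control wells.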

[2] = target: T2, PDE1A (Homo sapiens, UniProt P54750); experiment: Phosphodiesterase enzyme screening assay, PDE1A; conditions: ratio of IC50 values
T2 construct: purchased Reaction Biology Corporation, Malvern, Pa
Method in brief: as §1

[3] = target: T3, PDE9A2 (Homo sapiens, UniProt O76083); experiment: Phosphodiesterase enzyme screening assay, PDE9A2; conditions: read-out: Band (PDE9A2 IC50)
T3 construct: purchased Reaction Biology Corporation, Malvern, Pa
Method in brief: as §1

[4] = Table 1, value greater than 1 indicates greater selectivity for PDE9A2
[5] = Table 1, 10 concentrations, 4.0 μM cGMP substrate, 1 hour at R.T.
[6] = value greater than 1 indicates greater selectivity for PDE9A2

T3 sequence (O76083 1-533 isoform O76083-2): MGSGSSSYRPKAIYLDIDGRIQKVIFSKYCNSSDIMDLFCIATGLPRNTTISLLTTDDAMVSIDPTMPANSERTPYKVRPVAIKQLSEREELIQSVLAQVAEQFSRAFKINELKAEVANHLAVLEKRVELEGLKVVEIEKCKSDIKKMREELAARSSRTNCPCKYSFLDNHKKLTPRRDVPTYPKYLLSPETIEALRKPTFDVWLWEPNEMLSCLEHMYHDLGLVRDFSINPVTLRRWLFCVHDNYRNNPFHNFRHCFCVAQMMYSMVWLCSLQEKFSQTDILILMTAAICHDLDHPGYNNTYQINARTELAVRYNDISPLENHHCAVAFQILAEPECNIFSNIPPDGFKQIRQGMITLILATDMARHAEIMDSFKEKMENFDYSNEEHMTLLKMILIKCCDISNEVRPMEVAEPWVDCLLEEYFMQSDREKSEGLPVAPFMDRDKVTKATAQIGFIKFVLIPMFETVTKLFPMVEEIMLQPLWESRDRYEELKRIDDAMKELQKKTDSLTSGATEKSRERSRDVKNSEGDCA
T1 sequence (Q01064 whole entry): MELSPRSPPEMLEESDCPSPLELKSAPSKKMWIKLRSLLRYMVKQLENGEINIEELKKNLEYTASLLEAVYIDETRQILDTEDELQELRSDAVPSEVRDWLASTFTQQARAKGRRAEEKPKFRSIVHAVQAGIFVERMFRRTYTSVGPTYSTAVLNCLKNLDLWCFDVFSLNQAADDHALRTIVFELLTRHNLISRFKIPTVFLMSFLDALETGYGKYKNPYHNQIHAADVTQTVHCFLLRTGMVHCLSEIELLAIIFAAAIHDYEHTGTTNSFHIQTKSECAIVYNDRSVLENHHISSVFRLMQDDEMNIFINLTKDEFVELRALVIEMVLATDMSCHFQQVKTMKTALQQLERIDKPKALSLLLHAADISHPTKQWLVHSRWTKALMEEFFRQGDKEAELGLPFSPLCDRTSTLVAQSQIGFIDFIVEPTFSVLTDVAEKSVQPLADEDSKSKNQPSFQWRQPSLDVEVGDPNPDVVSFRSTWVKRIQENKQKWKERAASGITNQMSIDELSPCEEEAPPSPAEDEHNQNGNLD
T2 sequence (P54750 whole entry): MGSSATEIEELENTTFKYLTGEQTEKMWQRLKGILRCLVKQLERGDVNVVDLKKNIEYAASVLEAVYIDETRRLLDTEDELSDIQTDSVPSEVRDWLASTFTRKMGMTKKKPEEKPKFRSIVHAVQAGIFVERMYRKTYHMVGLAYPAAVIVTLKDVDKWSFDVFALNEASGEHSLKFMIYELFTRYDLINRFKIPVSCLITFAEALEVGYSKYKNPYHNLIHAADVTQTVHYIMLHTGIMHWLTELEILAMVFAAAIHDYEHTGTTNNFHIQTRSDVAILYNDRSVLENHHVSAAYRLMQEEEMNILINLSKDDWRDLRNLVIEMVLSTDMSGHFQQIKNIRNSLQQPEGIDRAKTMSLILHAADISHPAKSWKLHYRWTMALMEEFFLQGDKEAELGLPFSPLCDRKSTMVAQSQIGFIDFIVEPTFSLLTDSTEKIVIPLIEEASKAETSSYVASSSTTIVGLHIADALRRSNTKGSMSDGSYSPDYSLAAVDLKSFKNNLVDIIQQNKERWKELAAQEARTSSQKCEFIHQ

SMILES | PDE1B selectivity (versus PDE9A2) [1, 4] | PDE1A selectivity (versus PDE9A2) [2, 4] | IC50 [3, 5] [nM] | also measured
CC1CN(Cc2cn3cccnc3n2)CC1c1nn2c(C3CCOCC3)ncc2c(=O)[nH]1 (single isomer, unassigned; (-)) [(−)-2-((3,4-trans)-1-(imidazo[1,2-a]pyrimidin-2-ylmethyl)-4-methylpyrrolidin-3-yl)-7-(tetrahydro-2H-pyran-4-yl)imidazo[5,1-f][1,2,4]triazin-4(3H)-one] | 591 | 188 | < 1000 | –
CC1CN(Cc2cn3ncccc3n2)CC1c1nn2c(C3CCOCC3)ncc2c(=O)[nH]1 (single isomer, unassigned; (-)) [(−)-2-((3,4-trans)-1-(imidazo[1,2-b]pyridazin-2-ylmethyl)-4-methylpyrrolidin-3-yl)-7-(tetrahydro-2H-pyran-4-yl)imidazo[5,1-f][1,2,4]triazin-4(3H)-one] | 12 | 8 | < 1000 | –
CC1CN(Cc2ccccc2)CC1c1nn2c(C3CCOCC3)ncc2c(=O)[nH]1 (single isomer, unassigned; (-)) [(−)-2-((3,4-trans)-1-benzyl-4-methylpyrrolidin-3-yl)-7-(tetr] [(−)-2-((3,4-trans)-1-benzyl-4-methylpyrrolidin-3-yl)-7-(tetrahydro-2H-pyran-4-yl)imidazo[1,5-f][1,2,4]triazin-4(3H)-one] | 550 | 465 | < 1000 | –
CC1CN(Cc2ccc(-c3ccncc3)cc2)CC1c1nn2c(C3CCOCC3)ncc2c(=O)[nH]1 (single isomer, unassigned; (-)) [(−)-2-((3,4-trans)-4-methyl-1-(4-(pyridin-4-yl)benzyl)pyrrolidin-3-yl)-7-(tetrahydro-2H-pyran-4-yl)imidazo[5,1-f][1,2,4]triazin-4(3H)-one] | – | – | – | PDE1B selectivity (versus PDE9A2) ([1]; PDE1B versus PDE9A2, value greater than 1 = greater selectivity for PDE9A2): 1560; PDE1A selectivity (versus PDE9A2) ([2]; PDE1A versus PDE9A2, value greater than 1 = greater selectivity for PDE9A2): 679; IC50 ([3]; Table 3, 4.0 μM cGMP substrate, 1 hour at R.T.): < 1000 nM
CC1CN(C(=O)c2cccnc2)CC1c1nn2c(C3CCOCC3)ncc2c(=O)[nH]1 (single isomer, unassigned; (-)) [(−)-2-((3,4-trans)-4-methyl-1-nicotinoylpyrrolidin-3-yl)-7-(tetrahydro-2H-pyran-4-yl)imidazo[5,1-f][1,2,4]triazin-4(3H)-one] | 50 | 36 | < 1000 | –
CC1CN(C(=O)c2ccc(C#N)cc2)CC1c1nn2c(C3CCOCC3)ncc2c(=O)[nH]1 (single isomer, unassigned; (-)) [(−)-4-((3,4-trans)-3-methyl-4-(4-oxo-7-(tetrahydro-2H-pyran-4-yl)-3,4-dihydroimidazo[5,1-f][1,2,4]triazin-2-yl)pyrrolidine-1-carbonyl)benzonitrile] | 21 | 14 | < 1000 | –
CC1CN(Cc2ccc(C#N)cc2)CC1c1nn2c(C3CCOCC3)ncc2c(=O)[nH]1 (single isomer, unassigned; (-)) [(−)-4-(((3,4-trans)-3-methyl-4-(4-oxo-7-(tetrahydro-2H-pyran-4-yl)-3,4-dihydroimidazo[5,1-f][1,2,4]triazin-2-yl)pyrrolidin-1-yl)methyl)benzonitrile] | 1445 | 640 | < 1000 | –
CC1CN(CC2CCN(C(=O)OC(C)(C)C)CC2)CC1c1nn2c(C3CCOCC3)ncc2c(=O)[nH]1 (single isomer, unassigned; (-)) [(−)-tert-butyl (−)-4-(((3,4-trans)-3-methyl-4-(4-oxo-7-(tetrahydro-2H-pyran-4-yl)-3,4-dihydroimidazo[5,1-f][1,2,4]triazin-2-yl)pyrrolidin-1-yl)methyl)piperidine-1-carboxylate] | – | – | – | PDE1B selectivity (versus PDE9A2) [1, 6]: 262; PDE1A selectivity (versus PDE9A2) [2, 6]: 129; IC50 [3]: < 1000 nM

More lines, main results first:

PDE1B selectivity (versus PDE9A2) [1, 4] | PDE1A selectivity (versus PDE9A2) [2, 4] | IC50 [3, 5] [nM] | SMILES | also measured
2000 | 1213 | < 1000 | CC1CN(Cc2ncc3ccccc3n2)CC1c1nn2c(C3CCOCC3)ncc2c(=O)[nH]1 (single isomer, unassigned; (-)) [(−)-2-((3,4-trans)-4-methyl-1-(quinazolin-2-ylmethyl)pyrroli] [(−)-2-((3,4-trans)-4-methyl-1-(quinazolin-2-ylmethyl)pyrrolidin-3-yl)-7-(tetrahydro-2H-pyran-4-yl)imidazo[5,1-f][1,2,4]triazin-4(3H)-one] | –
50 | 32 | < 1000 | CC1CN(C(=O)c2ncc3ccccc3n2)CC1c1nn2c(C3CCOCC3)ncc2c(=O)[nH]1 (single isomer, unassigned; (-)) [(−)-2-((3,4-trans)-4-methyl-1-(quinazoline-2-carbonyl)pyrrolidin-3-yl)-7-(tetrahydro-2H-pyran-4-yl)imidazo[5,1-f][1,2,4]triazin-4(3H)-one] | –
48 | 56 | < 1000 | CC1CN(Cc2ccc3ccccc3n2)CC1c1nn2c(C3CCOCC3)ncc2c(=O)[nH]1 (single isomer, unassigned; (-)) [(−)-2-((3,4-trans)-4-methyl-1-(quinolin-2-ylmethyl)pyrrolidi] [(−)-2-((3,4-trans)-4-methyl-1-(quinolin-2-ylmethyl)pyrrolidin-3-yl)-7-(tetrahydro-2H-pyran-4-yl)imidazo[5,1-f][1,2,4]triazin-4(3H)-one] | –
2610 | 334 | < 1000 | CC1CN(Cc2ccc3cccnc3c2)CC1c1nn2c(C3CCOCC3)ncc2c(=O)[nH]1 (single isomer, unassigned; (-)) [(−)-2-((3,4-trans)-4-methyl-1-(quinolin-7-ylmethyl)pyrrolidin-3-yl)-7-(tetrahydro-2H-pyran-4-yl)imidazo[5,1-f][1,2,4]triazin-4(3H)-one] | –
59 | 25 | < 1000 | CC1CN(C(=O)c2ccc3ccccc3n2)CC1c1nn2c(C3CCOCC3)ncc2c(=O)[nH]1 (single isomer, unassigned; (-)) [(−)-2-((3,4-trans)-4-methyl-1-(quinoline-2-carbonyl)pyrrolidin-3-yl)-7-(tetrahydro-2H-pyran-4-yl)imidazo[5,1-f][1,2,4]triazin-4(3H)-one] | –
